We go through one compound from publication PMC12559910, “A New N6‐Methyladenosine Inhibitor, Celastrol, Alleviates Rheumatoid Arthritis via Targeting IGF2BP3” (MedComm, 2025).

In this assay the target is T1, recombinant IGF2BP3 protein (Homo sapiens, UniProt O00425).
T1 construct: recombinant, amine-coupled to CM5 chip
As to the kind of experiment: SPR (Biacore T200, CM5 chip, steady-state fit). Type of assay: binding. (In general: SPR reads the build-up and loss of mass on a sensor chip optically.)

T1 sequence (O00425 whole entry): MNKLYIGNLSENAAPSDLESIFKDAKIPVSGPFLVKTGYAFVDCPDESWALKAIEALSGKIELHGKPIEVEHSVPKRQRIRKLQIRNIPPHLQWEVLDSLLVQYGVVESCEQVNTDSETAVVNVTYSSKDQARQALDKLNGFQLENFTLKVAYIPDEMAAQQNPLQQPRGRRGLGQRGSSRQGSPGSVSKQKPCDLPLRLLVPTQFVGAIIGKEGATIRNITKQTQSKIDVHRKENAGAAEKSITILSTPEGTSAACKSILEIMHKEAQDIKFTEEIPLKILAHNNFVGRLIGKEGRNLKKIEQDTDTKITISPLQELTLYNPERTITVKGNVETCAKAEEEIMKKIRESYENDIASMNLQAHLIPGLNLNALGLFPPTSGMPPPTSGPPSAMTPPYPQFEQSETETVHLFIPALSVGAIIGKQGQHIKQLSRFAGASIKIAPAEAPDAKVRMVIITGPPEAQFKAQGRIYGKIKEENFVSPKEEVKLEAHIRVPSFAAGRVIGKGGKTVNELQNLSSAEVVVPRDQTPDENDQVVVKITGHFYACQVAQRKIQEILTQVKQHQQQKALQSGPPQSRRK

One may read the Kd as the free concentration of one partner at which half of the binding sites on the other are occupied at equilibrium, for simple one-to-one binding. Consider `CC1=C(O)C(=O)C=C2C1=CC=C1[C@@]2(C)CC[C@@]2(C)[C@@H]3C[C@](C)(C(=O)O)CC[C@]3(C)CC[C@]12C` [celastrol], for which the Kd turned out to be 1.65 µM.
